For series [1] the following is noted: even in the absence of partial agonism; cited from earlier work.
The conditions of series [2]: during clinical trials; cited from earlier work.
Series [3] has as its target T1, human TRPV1 (hTRPV1) (Homo sapiens, UniProt Q8NER1).
T1 construct: host or cells: HEK (PrecisION hTRPV1-HEK recombinant cell line)
The experiment in a line: Ca2+ influx assay, antagonism against capsaicin in hTRPV1-HEK recombinant cells. It is filed as cell-based. The following applies: capsaicin 10 nM as activator, Fluo4-NW fluorescence, read-out: hTRPV1 IC50 [cap].

The nature of series [4]: Evaluation of bioavailability (BA), rat PK after intravenous and oral administration. It counts as in vivo, SD rats. The following applies: male, SD, plasma, 10 mg/kg, read-out: Bioavailability F (%). On the procedure:
SD rats (Coatec, Hana Trading Co., Ltd., 7-8 weeks old, male, n=4, 250-300 g) were used for the experiment. The rats were bred in a small animal breeding room (experimental animal center) set at a temperature of 22±2° C., a relative humidity of 50±5%, an illumination time of 12 hours (08:00˜20:00), and an illumination intensity of 150 to 300 lux. Feed was fed freely during the entire test period, and RO water was provided freely. Before oral administration of the test substances (example compounds and comparative example compounds of the present invention), the rats were fasted for 16 hours.
The dosage of the example compounds and comparative example compounds of the present invention was 5 mg/kg when administered intravenously and 10 mg/kg when administered orally. For intravenous administration, a clear solution in which 10% DMSO, 10% Cremophor EL, and 80% PEG400 were dissolved was administered. For oral administration, a solution or suspension in which 10% DMSO and 10% Cremophor EL were dissolved in 80% DDW was administered.
After the intravenous or oral administration, blood was collected at 5 minutes, 15 minutes, 30 minutes, 1 hour, 2 hours, 4 hours, 6 hours and 8 hours, and the concentrations of the test substances (example compounds and comparative example compounds of the present invention) in plasma were measured by LC-MS/MS.
After adding 80 μl of acetonitrile (including internal standard) to 20 μl of plasma, centrifugation was performed for 5 minutes at 15,000 rpm at 4° C. with vortexing. The supernatant obtained after the centrifugation was analyzed by LC-MS/MS. For HPLC, Nexera XR system (Shimadzu, Japan) was used, and for mass spectrometer, TSQ vantage triple quadruple (Thermo, USA) was used.
The PK parameters were calculated with a non-compartmental analysis model using Phoenix WinNonlin 6.4 version (Pharsight, USA) program.
AUC was calculated using the linear trapezoidal rule in the rising plasma-level phase and the logarithmic trapezoidal rule in the declining phase.

For series [5], the target named is T1, human TRPV1 (hTRPV1). The series can be described thus: Evaluation of human pH inhibitory activity in hTRPV1-HEK recombinant cells. It counts as cell-based. The following applies: inhibition of activation at final pH 6.0, test substance 3 μM. Here is the method: Evaluation of Human pH Inhibitory Activity
PrecisION™ hTRPV1-HEK recombinant cells (CYL3063) were purchased from Millipore and used. After culturing the above cells under the conditions of 37° C. and 5% CO2, the cells were inoculated in a 96-well plate at the density of 5×10^4 cells/well, followed by culture for 16 hours. Then, the medium was removed and 100 uL of a staining solution was put into each well, followed by culture for 30 minutes under the conditions of 37° C. and 5% CO2. After 30 minutes, all of the existing staining solution was removed and replaced with 100 uL of HBSS. Thereafter, the cells were acclimatized to room temperature for 15 minutes, and the test substances (example compounds and comparative example compounds of the present invention) were added to each well, followed by culture at room temperature for 15 minutes. Then, the final pH was adjusted to 6.0 using MES, and fluorescence was measured (ex485/em535). In the pH assay, the efficacy of the drug was evaluated using BCTC as a TRPV1 antagonist.

Each structure is given as a SMILES string.

T1 sequence (Q8NER1 whole entry): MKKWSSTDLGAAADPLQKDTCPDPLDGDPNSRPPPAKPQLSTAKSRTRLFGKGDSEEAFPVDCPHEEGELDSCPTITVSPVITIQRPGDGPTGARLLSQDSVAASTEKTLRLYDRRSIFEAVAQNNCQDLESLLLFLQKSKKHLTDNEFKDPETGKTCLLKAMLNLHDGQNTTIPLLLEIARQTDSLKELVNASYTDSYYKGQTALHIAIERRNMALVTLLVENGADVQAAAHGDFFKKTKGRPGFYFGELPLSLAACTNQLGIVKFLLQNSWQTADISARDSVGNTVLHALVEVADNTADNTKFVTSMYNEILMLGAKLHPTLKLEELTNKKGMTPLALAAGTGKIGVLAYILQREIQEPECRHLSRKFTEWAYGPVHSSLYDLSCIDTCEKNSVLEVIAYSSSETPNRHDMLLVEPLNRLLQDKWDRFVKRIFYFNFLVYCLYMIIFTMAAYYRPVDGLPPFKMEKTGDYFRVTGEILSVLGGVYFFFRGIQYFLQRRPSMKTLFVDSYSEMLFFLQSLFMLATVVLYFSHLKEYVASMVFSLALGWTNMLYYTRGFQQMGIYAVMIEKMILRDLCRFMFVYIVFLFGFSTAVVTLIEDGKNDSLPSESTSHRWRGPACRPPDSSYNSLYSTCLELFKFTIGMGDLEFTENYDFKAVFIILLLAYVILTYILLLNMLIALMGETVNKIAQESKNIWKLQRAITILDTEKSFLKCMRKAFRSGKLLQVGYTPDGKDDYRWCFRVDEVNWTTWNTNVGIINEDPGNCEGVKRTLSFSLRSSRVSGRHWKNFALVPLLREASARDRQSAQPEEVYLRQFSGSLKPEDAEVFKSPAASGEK

As to `FC(F)(F)c1ccc(-c2cc(Nc3ccc4ncsc4c3)ncn2)c(NCC2CCCCC2)c1` [AMG7905], the “effect on body temperature” value in series [1] was “cause hypothermia”.
As for `O=C(/C=C/c1ccc(C(F)(F)F)cc1N1CCCCC1)Nc1cccc2c1C[C@H](O)C2` [AMG8562], in series [1], the “effect on body temperature” value is listed as “cause hypothermia”.
In the case of `CC(=O)Nc1nc2c(Oc3cc(-c4ccc(C(F)(F)F)cc4)ncn3)cccc2s1` [AMG 517], the “subject's body temperature rose to” value in series [2] was 40.2 °C.
As usually defined, the IC50 is the midpoint of a concentration-inhibition curve. As a reminder, the bioavailability is the share of a dose that reaches the circulation, judged against a reference dose that is usually intravenous. Turning to `O=C(NCc1ccc(C(F)(F)F)nc1N1CCCC1)Nc1cccc2[nH]c(=O)[nH]c12` [Comparative Example 1, 1-(2-oxo-1,3-dihydrobenzimidazol-4-yl)-3-[[2-pyrrolidin-1-yl-6-(trifluoromethyl)-3-pyridyl]methyl]urea, reference compound], the IC50 in series [3] is 0.0185 µM. For the same molecule, the bioavailability in series [4] worked out at 2.3%.
For `CC(C)Oc1nc(C(F)(F)F)ccc1CNC(=O)Nc1cccc2[nH]c(=O)[nH]c12` [Comparative Example 2, 1-[[2-isopropoxy-6-(trifluoromethyl)-3-pyridyl]methyl]-3-(2-oxo-1,3-dihydrobenzimidazol-4-yl)urea, reference compound], the IC50 in series [3] was 0.0234 µM. Moreover, in series [4], the bioavailability was determined as 1%.
For `O=C(NCc1ccc(C(F)(F)F)nc1N1CCCCC1)Nc1cccc2[nH]c(=O)[nH]c12` [Comparative Example 3, 1-(2-oxo-1,3-dihydrobenzimidazol-4-yl)-3-[[2-(1-piperidyl)-6-(trifluoromethyl)-3-pyridyl]methyl]urea, reference compound], the IC50 in series [3] amounted to 0.0135 µM. The bioavailability in series [4] stood at 3%.
With `O=C(/C=C/c1ccc(C(F)(F)F)nc1N1CCCC1)Nc1cccc2[nH]c(=O)[nH]c12` [Example 3, (E)-N-(2-oxo-2,3-dihydro-1H-benzo[d]imidazol-4-yl)-3-(2-(pyrrolidin-1-yl)-6-(trifluoromethyl)pyridin-3-yl)acrylamide], in series [3], the IC50 was found to be 0.0157 µM. In addition, the “hTRPV1 pH (%, 3 μM)” value in series [5] came to 52.56%. For the same molecule, the bioavailability in series [4] was determined as 13.2%.
For the molecule `O=C(/C=C/c1ccc(C(F)(F)F)nc1N1CCCCC1)Nc1cccc2[nH]c(=O)[nH]c12` [Example 4, (E)-N-(2-oxo-2,3-dihydro-1H-benzo[d]imidazol-4-yl)-3-(2-(piperidin-1-yl)-6-(trifluoromethyl)pyridin-3-yl)acrylamide], in series [3], the IC50 worked out at 0.0113 µM. For the same molecule, the “hTRPV1 pH (%, 3 μM)” value in series [5] is given as 49.86%. In addition, the bioavailability in series [4] was 12.5%.
For `CC(C)COc1nc(C(F)(F)F)ccc1/C=C/C(=O)Nc1cccc2[nH]c(=O)[nH]c12` [Example 10, (E)-3-(2-isobutoxy-6-(trifluoromethyl)pyridin-3-yl)-N-(2-oxo-2,3-dihydro-1H-benzo[d]imidazol-4-yl)acrylamide] the same measures were 0.013 µM, 53.26% and 25.9%.
For `O=C(/C=C/c1ccc(C(F)(F)F)nc1OCC1CC1)Nc1cccc2[nH]c(=O)[nH]c12` [Example 13, (E)-3-(2-(cyclopropylmethoxy)-6-(trifluoromethyl)pyridin-3-yl)-N-(2-oxo-2,3-dihydro-1H-benzo[d]imidazol-4-yl)acrylamide] the same measures were 0.0137 µM, 30.67% and 35.6%.
`CC(C)(C)c1cc(/C=C/C(=O)Nc2cccc3[nH]c(=O)[nH]c23)n(-c2cccc(Cl)c2)n1` [Example 53, (E)-3-(3-(tert-butyl)-1-(3-chlorophenyl)-1H-pyrazol-5-yl)-N-(2-oxo-2,3-dihydro-1H-benzo[d]imidazol-4-yl)acrylamide]: the IC50 in series [3] came to 0.0798 µM. Also, the “hTRPV1 pH (%, 3 μM)” value in series [5] came out at 78.21%.
`O=C(/C=C/c1sc(C(F)(F)F)nc1-c1cccc(Cl)c1)Nc1cccc2[nH]c(=O)[nH]c12` [Example 54, (E)-3-(4-(3-chlorophenyl)-2-(trifluoromethyl)thiazol-5-yl)-N-(2-oxo-2,3-dihydro-1H-benzo[d]imidazol-4-yl)acrylamide]: the half-maximal inhibitory concentration (IC50) in series [3] was determined as 0.0557 µM. For the same molecule, the “hTRPV1 pH (%, 3 μM)” value in series [5] was found to be 63.44%.
Taken in the same sequence, the figures for `O=C(/C=C/c1sc(C2CC2)nc1-c1cccc(Cl)c1)Nc1cccc2[nH]c(=O)[nH]c12` [Example 56, (E)-3-(4-(3-chlorophenyl)-2-cyclopropylthiazol-5-yl)-N-(2-oxo-2,3-dihydro-1H-benzo[d]imidazol-4-yl)acrylamide] were 0.026 µM and 68.23%.
As to `CC1(c2nc(-c3cccc(Cl)c3)c(/C=C/C(=O)Nc3cccc4[nH]c(=O)[nH]c34)s2)CC1` [Example 57, (E)-3-(4-(3-chlorophenyl)-2-(1-methylcyclopropyl)thiazol-5-yl)-N-(2-oxo-2,3-dihydro-1H-benzo[d]imidazol-4-yl)acrylamide], the half-maximal inhibitory concentration (IC50) in series [3] is 0.0398 µM. The “hTRPV1 pH (%, 3 μM)” value in series [5] worked out at 61.78%.
For `CC(C)COc1nc(C(F)(F)F)ccc1CCC(=O)Nc1cccc2[nH]c(=O)[nH]c12` [Example 59, 3-(2-isobutoxy-6-(trifluoromethyl)pyridin-3-yl)-N-(2-oxo-2,3-dihydro-1H-benzo[d]imidazol-4-yl)propaneamide], the half-maximal inhibitory concentration (IC50) in series [3] stood at 0.0407 µM. Moreover, the “hTRPV1 pH (%, 3 μM)” value in series [5] is 59.32%.
Turning to `O=C(CCc1ccc(C(F)(F)F)nc1OCC1CC1)Nc1cccc2[nH]c(=O)[nH]c12` [Example 60, 3-(2-(cyclopropylmethoxy)-6-(trifluoromethyl)pyridin-3-yl)-N-(2-oxo-2,3-dihydro-1H-benzo[d]imidazol-4-yl)propaneamide], the IC50 in series [3] is 0.0237 µM. Further, the “hTRPV1 pH (%, 3 μM)” value in series [5] is recorded as 67.19%.
Regarding `O=C(Nc1cccc2[nH]c(=O)[nH]c12)C1CC1c1cc(C(F)(F)F)nn1-c1cccc(Cl)c1` (centres unmarked) [Example 63, 2-(1-(3-chlorophenyl)-3-(trifluoromethyl)-1H-pyrazol-5-yl)-N-(2-oxo-2,3-dihydro-1H-benzo[d]imidazol-4-yl)cyclopropane-1-carboxamide], the IC50 in series [3] turned out to be 0.0103 µM. In addition, in series [5], the “hTRPV1 pH (%, 3 μM)” value amounted to 0.53%.

The values above are taken from US12653814B2, “Benzimidazolone-based cinnamamide derivative as TRPV1 antagonist and pharmaceutical composition for treatment or prevention of pain containing same as active ingredient” (JMACKEM CO., LTD, priority 2020, dated 2026).
